Data set [1] can be described thus: Pharmacokinetic evaluation in mice. As to conditions: male, C57BL/6, mouse, plasma, intravenous injection 2 mg/kg, fasted, read-out: Apparent Volume of Distribution. In kind it is in vivo, C57BL/6 or C57 mice. The source says:
C57BL/6 or C57 male mice were selected as the test animals for this study. The LC/MS/MS method was employed to quantitatively determine the plasma drug concentrations at various time points after intravenous injection or intragastric administration of the test compound, aiming to evaluate the pharmacokinetic characteristics of the compound of the present disclosure in mice.
C57BL/6 or C57 mice (male, 20 to 30 g, 7 to 10 weeks old, Beijing Vital River).
A clear solution of the test compound was injected intravenously into the tail vein of C57BL/6 mice (fasted overnight) (vehicle: 10% DMSO/10% solutol/80% H2O), or administered intragastrically to C57 mice (fed). […] The mixture was thoroughly vortexed and mixed, and centrifuged at 6000 g for 3 minutes at 2 to 8° C. […] The mixture was thoroughly vortexed and mixed, and centrifuged at 6000 g for 3 minutes at 2 to 8° C. Plasma drug concentrations were determined by the LC-MS/MS method, and relevant pharmacokinetic parameters were calculated using Phoenix WinNonlin 8.2.0 pharmacokinetic software with non-compartmental model linear-log trapezoidal method.

Data set [2] in a line: Pharmacokinetic evaluation in beagle dogs. In kind it is in vivo. The settings on record: male, dog, plasma, intravenous injection 0.5 mg/kg, fed. On the procedure:
Male beagle dogs were selected as the experimental animals in this study.
Beagle dogs (male, 7 to 10 kg, Beijing Mars Biotechnology Co., Ltd.).
A clear solution of the test compound was slowly injected intravenously into beagle dogs (fed) via the peripheral vein (vehicle: […]/10% Solutol/85% H2O), or administered intragastrically to beagle dogs (fed). For intravenous administration, 0.5 mL of blood was collected from the peripheral vein at 0.083, 0.25, 0.5, 1, 2, 4, 6, 8, and 24 h after administration, placed in EDTA-2K anticoagulant tubes, and centrifuged at 3200 g for 10 minutes at 2 to 8° C. to separate the supernatant. For intragastric administration, 0.5 mL of blood was collected from the peripheral vein at 0.083, 0.25, 0.5, 1, 2, 4, 6, 8, and 24 h after administration, placed in EDTA-2K anticoagulant tubes, and centrifuged at 3200 g for 10 minutes at 2 to 8° C. to separate the supernatant. Plasma drug concentrations were determined by the LC-MS/MS method, and relevant pharmacokinetic parameters were calculated using Phoenix WinNonlin 6.3 pharmacokinetic software with non-compartmental model linear-log trapezoidal method.

Where a name gives a salt, the structure may show the parent alone.

The clearance is the volume of plasma or blood freed of the substance per unit of time. Broadly, the half-life is the time needed for the level to fall by half in the phase considered. `O=C1CCC(c2noc3ccc4c(NC(=O)CN5CCN(C[C@H]6CC[C@H](n7cc(NC(=O)c8coc(-c9ccnc(NCC%10CC%10)c9)n8)c(C(F)F)n7)CC6)CC5)cccc4c23)C(=O)N1` (stereo partly drawn) [Hydrochloride of Compound of Formula (I)]: the Vd in data set [1] worked out at 1.6 L/kg. In data set [2], this compound showed a clearance of 21.3 mL/min/kg. Besides, the half-life in data set [2] (read-out: Elimination Half-Life (converted)) was 5.03 h.

The values are drawn from US20260265240A1, “PREPARATION METHOD FOR SALT FORM AND CRYSTAL FORM OF 2,6-PIPERIDINEDIONE COMPOUND AND USE THEREOF” (ZHANGZHOU PIEN TZE HUANG PHARMACEUTICAL CO., LTD., priority 2023, published 2026).
